Results from PubChem BioAssay (NCI).
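In this assay, cells in 96-well plates receive the compound at five concentrations for 48 hours. Endpoints are linearly interpolated between the surrounding concentrations. TGI denotes the concentration required for complete inhibition of growth.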

Experiments:
Assay in all cases: NCI tumour cell line growth inhibition, 48 h
SF-268 CNS = tested on: SF-268 CNS
UACC-257 melanoma = tested on: UACC-257 melanoma
MDA-MB-231 breast = tested on: MDA-MB-231 breast
HCT-15 colon = tested on: HCT-15 colon
HL-60(TB) leukemia = tested on: HL-60(TB) leukemia
MCF7 breast = tested on: MCF7 breast
SK-MEL-28 melanoma = tested on: SK-MEL-28 melanoma
NCI-H460 lung = tested on: NCI-H460 lung
CCRF-CEM leukemia = tested on: CCRF-CEM leukemia
K-562 leukemia = tested on: K-562 leukemia
SF-295 CNS = tested on: SF-295 CNS
T-47D breast = tested on: T-47D breast
EKVX NSCLC = tested on: EKVX NSCLC
UO-31 renal = tested on: UO-31 renal
MDA-N = tested on: MDA-N
SK-MEL-5 melanoma = tested on: SK-MEL-5 melanoma
KM12 colon = tested on: KM12 colon
SNB-75 CNS = tested on: SNB-75 CNS
OVCAR-5 ovarian = tested on: OVCAR-5 ovarian
MDA-MB-435 = tested on: MDA-MB-435
UACC-62 melanoma = tested on: UACC-62 melanoma
TK-10 renal = tested on: TK-10 renal
BT-549 breast = tested on: BT-549 breast
U251 CNS = tested on: U251 CNS
SNB-19 CNS = tested on: SNB-19 CNS
OVCAR-4 ovarian = tested on: OVCAR-4 ovarian
NCI-H226 lung = tested on: NCI-H226 lung
MOLT-4 leukemia = tested on: MOLT-4 leukemia
HS 578T breast = tested on: HS 578T breast
HCT-116 colon = tested on: HCT-116 colon
SK-OV-3 ovarian = tested on: SK-OV-3 ovarian
OVCAR-3 ovarian = tested on: OVCAR-3 ovarian
DU-145 prostate = tested on: DU-145 prostate
LOX IMVI melanoma = tested on: LOX IMVI melanoma
IGROV1 ovarian = tested on: IGROV1 ovarian
HT29 colon = tested on: HT29 colon
786-0 renal = tested on: 786-0 renal
CAKI-1 renal = tested on: CAKI-1 renal
NCI-H23 lung = tested on: NCI-H23 lung
SF-539 CNS = tested on: SF-539 CNS
SW-620 colon = tested on: SW-620 colon
A498 renal = tested on: A498 renal
SR leukemia = tested on: SR leukemia
PC-3 prostate = tested on: PC-3 prostate
ACHN renal = tested on: ACHN renal
COLO 205 colon = tested on: COLO 205 colon
NCI/ADR-RES ovarian = tested on: NCI/ADR-RES ovarian
MALME-3M melanoma = tested on: MALME-3M melanoma
HOP-62 NSCLC = tested on: HOP-62 NSCLC
M14 melanoma = tested on: M14 melanoma
SK-MEL-2 melanoma = tested on: SK-MEL-2 melanoma
A549 NSCLC = tested on: A549 NSCLC
RPMI-8226 leukemia = tested on: RPMI-8226 leukemia
RXF 393 renal = tested on: RXF 393 renal
OVCAR-8 ovarian = tested on: OVCAR-8 ovarian
SN12C renal = tested on: SN12C renal
NCI-H522 lung = tested on: NCI-H522 lung
HOP-92 NSCLC = tested on: HOP-92 NSCLC

## CCCCC/C=C\C=C1\C(=O)C=C[C@@H]1C/C=C\CCCC(=O)O
SF-268 CNS
  TGI: 13.6 µM
UACC-257 melanoma
  TGI: 14.7 µM
MDA-MB-231 breast
  TGI: 18.7 µM
HCT-15 colon
  TGI: 14.9 µM
HL-60(TB) leukemia
  TGI: 17.9 µM
MCF7 breast
  TGI: 12.9 µM
SK-MEL-28 melanoma
  TGI: 13.9 µM
NCI-H460 lung
  TGI: 16.5 µM
CCRF-CEM leukemia
  TGI: 3.28 µM
K-562 leukemia
  TGI: 60 µM
SF-295 CNS
  TGI: 11.5 µM
T-47D breast
  TGI: 24.5 µM
EKVX NSCLC
  TGI: 5.61 µM
UO-31 renal
  TGI: 13.4 µM
MDA-N
  TGI: 7.14 µM
SK-MEL-5 melanoma
  TGI: 11.2 µM
KM12 colon
  TGI: 11.9 µM
SNB-75 CNS
  TGI: 17.7 µM
OVCAR-5 ovarian
  TGI: 9.72 µM
MDA-MB-435
  TGI: 9.16 µM
UACC-62 melanoma
  TGI: 12 µM
TK-10 renal
  TGI: 18 µM
BT-549 breast
  TGI: 5.13 µM
U251 CNS
  TGI: 8.39 µM
SNB-19 CNS
  TGI: 12.1 µM
OVCAR-4 ovarian
  TGI: 6.28 µM
NCI-H226 lung
  TGI: 14.8 µM
MOLT-4 leukemia
  TGI: 60 µM
HS 578T breast
  TGI: 13.4 µM
HCT-116 colon
  TGI: 2.74 µM
SK-OV-3 ovarian
  TGI: 14.4 µM
OVCAR-3 ovarian
  TGI: 9.82 µM
DU-145 prostate
  TGI: 15.5 µM
LOX IMVI melanoma
  TGI: 8.19 µM
IGROV1 ovarian
  TGI: 8.93 µM
HT29 colon
  TGI: 12 µM
786-0 renal
  TGI: 9.73 µM
CAKI-1 renal
  TGI: 14.9 µM
NCI-H23 lung
  TGI: 15.5 µM
SF-539 CNS
  TGI: 12.8 µM
SW-620 colon
  TGI: 9.09 µM
A498 renal
  TGI: 21.4 µM
SR leukemia
  TGI: 5.53 µM
PC-3 prostate
  TGI: 5.13 µM
ACHN renal
  TGI: 9.48 µM
COLO 205 colon
  TGI: 9.36 µM
NCI/ADR-RES ovarian
  TGI: 2.66 µM
MALME-3M melanoma
  TGI: 25 µM
HOP-62 NSCLC
  TGI: 8.62 µM
M14 melanoma
  TGI: 15.1 µM
SK-MEL-2 melanoma
  TGI: 9.85 µM
A549 NSCLC
  TGI: 18.7 µM
RPMI-8226 leukemia
  TGI: 3.15 µM
RXF 393 renal
  TGI: 6.93 µM
OVCAR-8 ovarian
  TGI: 3.73 µM
SN12C renal
  TGI: 8.06 µM

## CC(C)(C)c1ccc(O)c(C[N+](C)(C)C)c1
SF-268 CNS
  TGI: > 100 µM
MDA-MB-231 breast
  TGI: > 100 µM
HCT-15 colon
  TGI: > 100 µM
MCF7 breast
  TGI: > 100 µM
SK-MEL-28 melanoma
  TGI: > 100 µM
NCI-H460 lung
  TGI: > 100 µM
CCRF-CEM leukemia
  TGI: > 100 µM
K-562 leukemia
  TGI: > 100 µM
SF-295 CNS
  TGI: > 100 µM
T-47D breast
  TGI: > 100 µM
EKVX NSCLC
  TGI: > 100 µM
UO-31 renal
  TGI: > 100 µM
MDA-N
  TGI: > 100 µM
SK-MEL-5 melanoma
  TGI: > 100 µM
KM12 colon
  TGI: > 100 µM
SNB-75 CNS
  TGI: > 100 µM
OVCAR-5 ovarian
  TGI: > 100 µM
MDA-MB-435
  TGI: > 100 µM
UACC-62 melanoma
  TGI: > 100 µM
TK-10 renal
  TGI: > 100 µM
BT-549 breast
  TGI: > 100 µM
U251 CNS
  TGI: > 100 µM
SNB-19 CNS
  TGI: > 100 µM
OVCAR-4 ovarian
  TGI: > 100 µM
NCI-H522 lung
  TGI: > 100 µM
MOLT-4 leukemia
  TGI: > 100 µM
HS 578T breast
  TGI: > 100 µM
HCT-116 colon
  TGI: > 100 µM
SK-OV-3 ovarian
  TGI: > 100 µM
OVCAR-3 ovarian
  TGI: > 100 µM
DU-145 prostate
  TGI: > 100 µM
LOX IMVI melanoma
  TGI: > 100 µM
IGROV1 ovarian
  TGI: > 100 µM
HOP-92 NSCLC
  TGI: > 100 µM
HT29 colon
  TGI: > 100 µM
786-0 renal
  TGI: > 100 µM
CAKI-1 renal
  TGI: > 100 µM
NCI-H23 lung
  TGI: > 100 µM
SF-539 CNS
  TGI: > 100 µM
SW-620 colon
  TGI: > 100 µM
A498 renal
  TGI: > 100 µM
SR leukemia
  TGI: > 100 µM
PC-3 prostate
  TGI: > 100 µM
ACHN renal
  TGI: > 100 µM
COLO 205 colon
  TGI: > 100 µM
NCI/ADR-RES ovarian
  TGI: > 100 µM
MALME-3M melanoma
  TGI: > 100 µM
HOP-62 NSCLC
  TGI: > 100 µM
M14 melanoma
  TGI: > 100 µM
SK-MEL-2 melanoma
  TGI: > 100 µM
A549 NSCLC
  TGI: > 100 µM
RPMI-8226 leukemia
  TGI: > 100 µM
RXF 393 renal
  TGI: > 100 µM
OVCAR-8 ovarian
  TGI: > 100 µM
SN12C renal
  TGI: > 100 µM
